US20020002171A1, “Materials and methods for killing nematodes and nematode eggs” (priority 2000, published 2002)

Test system: Caenorhabditis elegans
Assay: C. elegans L1 nematicidal dose response in 96-well plates, 5 day visual score (Example 2; same procedure for Example 7, Table 3)
Assay type: in vivo
Parameters: key to 5 Day Visual Score V1 / 5 Day Visual Score V2 / 5 Day Visual Score V3 / 5 Day Visual Score V4 / 5 Day Visual Score V6 / 5 Day Visual Score V5 / Initial HTS Run Visual Score / Follow-up HTS Run Visual Score: Dead: only stiff L1s (no movement); Dead (L4): worms are dead, but at a later larval stage; majority of worms are L1 (based on size) worms move when plate is tapped; majority of worms are L2 (based on size); majority of worms are L3 (based on size); majority of worms are L4 (based on size); AD: majority of worms are adult; #AD: 5 adult worms or less; B!: sterile (0-25 progeny); B: low broodsize (25-100 progeny); ˜B: moderate broodsize (100-250 progeny); <: reduced broodsize (250-500 progeny); OK: no effect (˜1000+ progeny)
Details: for 5 Day Visual Score V1 / 5 Day Visual Score V2 / 5 Day Visual Score V4 / 5 Day Visual Score V5 / 5 Day Visual Score V6 / 5 Day Visual Score V3: dose response; for 5 Day Visual Score V1: dilution V1, day 5; for 5 Day Visual Score V2: dilution V2, day 5; for 5 Day Visual Score V4: dilution V4, day 5; for 5 Day Visual Score V5: dilution V5, day 5; for 5 Day Visual Score V6: dilution V6, day 5; for 5 Day Visual Score V3: dilution V3, day 5
Method in brief: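 Scoring was by eye at 100× on day 5, after incubation at 20° C, of 20 C. elegans L1s per well fed 1% E. coli HB101 in NGM. Compound columns V1–V6 spanned 70 μM to 0.3 μM in 3-fold steps, with 1.4% DMSO in the top well and as control.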

Row | Structure (SMILES) | Follow-up HTS Run % Run | Follow-up HTS Run Visual Score | Follow-up HTS Run mOD | Initial HTS Run % Run | Initial HTS Run Visual Score | Initial HTS Run mOD | 5 Day Visual Score V1 | 5 Day Visual Score V2 | 5 Day Visual Score V4 | 5 Day Visual Score V5 | 5 Day Visual Score V6 | 5 Day Visual Score V3
1 | C=CCN(CC=C)c1nc(NCCCCCCCCCC)ns1 [compound 282] | 122% | Dead | 197 mOD | 135% | Dead | 148 mOD | Dead | Dead | OK (no effect (˜1000+ progeny)) | OK (no effect (˜1000+ progeny)) | OK (no effect (˜1000+ progeny)) | –
2 | CCCCCCCCCCNc1nsc(N(C)CCc2ccccc2)n1 [compound 283] | 120% | Dead | 193 mOD | 131% | Dead | 144 mOD | Dead | Dead | OK (no effect (˜1000+ progeny)) | OK (no effect (˜1000+ progeny)) | OK (no effect (˜1000+ progeny)) | –
3 | CCCCCCCCCCNc1nsc(N(C)Cc2ccccc2)n1 [compound 284] | 122% | Dead | 196 mOD | 142% | Dead | 156 mOD | Dead | Dead | ˜B (moderate broodsize (100-250 progeny)) | OK (no effect (˜1000+ progeny)) | OK (no effect (˜1000+ progeny)) | Dead
4 | CCCCCCCCCCNc1nsc(N(C)CCc2ccc(OC)c(OC)c2)n1 [compound 285] | 131% | Dead | 211 mOD | 149% | Dead | 164 mOD | Dead | Dead | ˜B (moderate broodsize (100-250 progeny)) | OK (no effect (˜1000+ progeny)) | OK (no effect (˜1000+ progeny)) | –
5 | Cc1cccc(C)c1N1CCN(c2nc(NCCC(c3ccccc3)c3ccccc3)ns2)CC1 [compound 287] | 88% | – | 142 mOD | 128% | – | 141 mOD | Dead | B (low broodsize (25-100 progeny)) | OK (no effect (˜1000+ progeny)) | OK (no effect (˜1000+ progeny)) | OK (no effect (˜1000+ progeny)) | –
6 | CCCCCCCCCCCCCCCCCCN(C)c1nc(NCCC(c2ccccc2)c2ccccc2)ns1 [compound 288] | 82% | L4/AD/B! | 132 mOD | 105% | L3/L4/1AD/B | 116 mOD | L1 | B (low broodsize (25-100 progeny)) | OK (no effect (˜1000+ progeny)) | OK (no effect (˜1000+ progeny)) | OK (no effect (˜1000+ progeny)) | OK (no effect (˜1000+ progeny))
7 | C=CCN(CC=C)c1nc(NCCC(c2ccccc2)c2ccccc2)ns1 [compound 289] | 86% | – | 139 mOD | 104% | L4/AD/B | 114 mOD | – | ˜B (moderate broodsize (100-250 progeny)) | OK (no effect (˜1000+ progeny)) | OK (no effect (˜1000+ progeny)) | OK (no effect (˜1000+ progeny)) | OK (no effect (˜1000+ progeny))
8 | CCOC(=O)CCN(Cc1ccccc1)c1nc(NCCC(c2ccccc2)c2ccccc2)ns1 [compound 290] | 99% | L4/AD/B | 159 mOD | 101% | L4/AD/B | 111 mOD | Dead | – | OK (no effect (˜1000+ progeny)) | OK (no effect (˜1000+ progeny)) | OK (no effect (˜1000+ progeny)) | OK (no effect (˜1000+ progeny))
9 | CCCCN(Cc1ccccc1)c1nc(NCc2ccc(F)cc2F)ns1 [compound 291] | 137% | B! (sterile (0-25 progeny)) | 220 mOD | 136% | – | 150 mOD | L4#AD/B! | OK (no effect (˜1000+ progeny)) | OK (no effect (˜1000+ progeny)) | OK (no effect (˜1000+ progeny)) | OK (no effect (˜1000+ progeny)) | OK (no effect (˜1000+ progeny))
10 | CCN(Cc1ccccc1)c1nc(NCc2ccc(F)cc2F)ns1 [compound 292] | 116% | L4/AD/B! | 187 mOD | 110% | – | 121 mOD | – | ˜B (moderate broodsize (100-250 progeny)) | OK (no effect (˜1000+ progeny)) | OK (no effect (˜1000+ progeny)) | OK (no effect (˜1000+ progeny)) | OK (no effect (˜1000+ progeny))
11 | C=CCN(CC=C)c1nc(NCc2ccc(F)cc2F)ns1 [compound 293] | 125% | L4/AD/B! | 201 mOD | 108% | L4 | 119 mOD | – | < (reduced broodsize (250-500 progeny)) | OK (no effect (˜1000+ progeny)) | OK (no effect (˜1000+ progeny)) | OK (no effect (˜1000+ progeny)) | OK (no effect (˜1000+ progeny))
12 | CN(CCc1ccccc1)c1nc(NCc2ccc(F)cc2F)ns1 [compound 294] | 116% | B! (sterile (0-25 progeny)) | 187 mOD | 108% | L4/AD/B!-Few Eggs | 119 mOD | – | – | OK (no effect (˜1000+ progeny)) | OK (no effect (˜1000+ progeny)) | OK (no effect (˜1000+ progeny)) | OK (no effect (˜1000+ progeny))
13 | CN(Cc1ccccc1)c1nc(NCc2ccc(F)cc2F)ns1 [compound 295] | 128% | B! (sterile (0-25 progeny)) | 206 mOD | 121% | L4/AD/B!-Few Eggs | 133 mOD | – | B (low broodsize (25-100 progeny)) | OK (no effect (˜1000+ progeny)) | OK (no effect (˜1000+ progeny)) | OK (no effect (˜1000+ progeny)) | B (low broodsize (25-100 progeny))
14 | Fc1ccc(N2CCN(c3nc(NCc4c(F)cccc4F)ns3)CC2)cc1 [compound 296] | 109% | L4 | 175 mOD | 96% | L4/AD/B!-Few Eggs | 106 mOD | Dead | – | OK (no effect (˜1000+ progeny)) | OK (no effect (˜1000+ progeny)) | < (reduced broodsize (250-500 progeny)) | B (low broodsize (25-100 progeny))
15 | CCN(c1nc(NCc2c(F)cccc2F)ns1)C1CCCCC1 [compound 297] | 109% | L4/AD/B | 175 mOD | 104% | L4/AD/B!-Few Eggs | 114 mOD | – | B (low broodsize (25-100 progeny)) | OK (no effect (˜1000+ progeny)) | OK (no effect (˜1000+ progeny)) | OK (no effect (˜1000+ progeny)) | OK (no effect (˜1000+ progeny))
16 | CCCCN(Cc1ccccc1)c1nc(NCc2c(F)cccc2F)ns1 [compound 298] | 143% | – | 231 mOD | 125% | L2 | 137 mOD | L4#AD/B | ˜B (moderate broodsize (100-250 progeny)) | OK (no effect (˜1000+ progeny)) | OK (no effect (˜1000+ progeny)) | OK (no effect (˜1000+ progeny)) | OK (no effect (˜1000+ progeny))
